Results as given in patent US11690854B2, “Methods of treating heavy menstrual bleeding” (priority 2018, dated 2023).
Marks after values point to notes of the source that are not given here.

Key:
[1] = system: premenopausal women with HMB and UF; experiment: Phase 2b trial, post hoc subgroup with uterine fibroids and non-dominant adenomyosis; assay type: in vivo, human; conditions: 6 months
Method: Patients and Methods: […] Elagolix studied in this clinical trial comprised the sodium salt of Compound A. All subjects were evaluated with ultrasound and a subset volunteered to also be evaluated by MRI. […] Efficacy and safety were evaluated post hoc in a subgroup of women who had confirmed non-dominant adenomyosis (ultrasound/MRI) at baseline. Menstrual blood loss (MBL) was quantified from sanitary products (alkaline hematin). […] Adverse events (AEs) were recorded.

healthy women = experiment: 3-menstrual cycle study in healthy women; assay type: in vivo, human
mice = experiment: 2-year carcinogenicity study in mice; assay type: in vivo; conditions: mouse; any dose
rats [2] = experiment: 2-year carcinogenicity study in rats; assay type: in vivo; conditions: rat
Text: The rat tumors were identified as being species-specific and of negligible relevance to humans. This conclusion is based on a follow-on thyroid and hepatic effects-related investigative study performed to document the possibility that thyroid and liver tumors may be specific to rat and occurred via induction of hepatic drug metabolizing enzymes at the high dose.

[3] = Mutagenicity studies using in vitro and in vivo test systems
Text: Mutagenicity studies have been performed with elagolix using in vitro and in vivo test systems.

rats [4] = experiment: Fertility study and repeat-dose study in rats; assay type: in vivo
Text: Based on pharmacologic actions of elagolix in humans a reversible effect on fertility may be expected in women.

[5] = system: premenopausal women with endometriosis with associated pain; experiment: Phase 3 Study EM-I (and extension EM-III); assay type: in vivo, human; conditions: for Proportion of responders for Dyspareunia (Daily Endometriosis Pain Impact Scale) / Proportion of responders for dysmenorrhea (Daily Endometriosis Pain Impact Scale) / Proportion of responders for Non-Menstrual Pelvic Pain (Daily Endometriosis Pain Impact Scale): EM-I
Text: Each placebo-controlled study assessed the reduction in endometriosis-associated pain over 6 months of treatment. More than 75 percent of women who completed Study EM-I and EM-II enrolled in the extension studies for an additional 6 month treatment period. Subjects were followed for up to 12 months post-treatment. The co-primary efficacy endpoints were the proportion of responders for dysmenorrhea and pelvic pain not related to menses (also known as non-menstrual pelvic pain [NMPP]) at Month 3 compared to placebo. The primary analysis independently evaluated these endpoints using a daily diary that asked patients to assess their pain and its impact on their daily activities, over the previous 24 hours. […] Women were defined as responders if they experienced clinically meaningful reduction in dysmenorrhea and/or NMPP with no increased analgesic use for endometriosis associated pain. Dyspareunia was evaluated as a secondary endpoint using the Daily Endometriosis Pain Impact Scale. Endometrial biopsies were performed in subjects in Study EM-I and its extension at Month 6 and Month 12.

[6] = system: premenopausal women with endometriosis with associated pain; experiment: Phase 3 Studies EM-I and EM-II together, with extension studies; assay type: in vivo, human
Text: Each placebo-controlled study assessed the reduction in endometriosis-associated pain over 6 months of treatment. More than 75 percent of women who completed Study EM-I and EM-II enrolled in the extension studies for an additional 6 month treatment period. Subjects were followed for up to 12 months post-treatment. Women in these studies also provided a daily self-assessment of their endometriosis pain using the Numeric Rating Scale (NRS), on a scale ranging from 0 (no pain) to 10 (worst pain ever). […] The population age range was 18-49 years old. Women who completed six months of treatment and met eligibility criteria continued treatment in two blinded six-month extension studies, for a total treatment duration of up to 12 months. In the placebo-controlled and extension clinical studies, BMD was measured by DXA. Changes observed in BMD at other anatomical sites (femoral neck, total hip) were generally smaller than lumbar spine.

COc1cccc(-c2c(C)n(Cc3c(F)cccc3C(F)(F)F)c(=O)n(C[C@H](NCCCC(=O)O)c3ccccc3)c2=O)c1F [Elagolix, 4-((R)-2-[5-(2-fluoro-3-methoxy-phenyl)-3-(2-fluoro-6-trifluoromethyl-benzyl)-4-methyl-2,6-dioxo-3,6-dihydro-2H-pyrimidin-1-yl]-1-phenyl-ethylamino)-butyric acid]
Proportion of women with ≥50% reduction from baseline in HMB and <80 mL MBL in the last 28 days of treatment ([1]; Cohort 1 (300 mg BID, with or without E2/NETA), placebo 40% (n=10)): 80% | Proportion of women with ≥50% reduction from baseline in HMB and <80 mL MBL in the last 28 days of treatment ([1]; Cohort 2 (600 mg QD, with or without E2/NETA), placebo 13% (n=16)): 92% | Ovulation rate (healthy women; 150 mg QD): approximately 50% | Mean endometrial thickness (transvaginal ultrasound) (healthy women; 150 mg QD and 200 mg BID, compared to pretreatment values): dose dependent decrease in the mean endometrial thickness | Ovulation rate (healthy women; 200 mg BID): ~32% | Tumors in 2-year carcinogenicity study (mice): no increase in tumors | Margin of safety at the high dose with respect to 200 mg BID in women (rats [2]; both, in vivo, 2 years): 13 fold | Tumors in 2-year carcinogenicity study (rats [2]; high dose, identified as species-specific): increase in thyroid (male and female) and liver (males only) tumors | Mutagenic or clastogenic potential [3]: no evidence of a mutagenic or clastogenic potential | Effect in fertility study (rats [4]; doses 50, 150, 300 mg/kg/day): no effect | Ovarian findings in repeat-dose study (rats [4]; doses 600, 800 mg/kg/day): involution and a decrease in corpora lutea in ovaries | Proportion of responders for Dyspareunia (Daily Endometriosis Pain Impact Scale) ([5]; 150 mg QD, Month 3, n/N 74/187, placebo 31.9): 39.6% | Proportion of responders for dysmenorrhea (Daily Endometriosis Pain Impact Scale) ([5]; 150 mg QD, Month 3, n/N 115/248, placebo 19.6): 46.4*** % | Proportion of responders for Non-Menstrual Pelvic Pain (Daily Endometriosis Pain Impact Scale) ([5]; 150 mg QD, Month 3, n/N 125/248, placebo 36.5): 50.4*** % | Proportion of responders for Dyspareunia (Daily Endometriosis Pain Impact Scale) ([5]; 150 mg QD, Month 6, n/N 74/187, placebo 33.3): 39.6% | Proportion of responders for dysmenorrhea (Daily Endometriosis Pain Impact Scale) ([5]; 150 mg QD, Month 6, n/N 104/247, placebo 23.1): 42.1*** % | Proportion of responders for Non-Menstrual Pelvic Pain (Daily Endometriosis Pain Impact Scale) ([5]; 150 mg QD, Month 6, n/N 113/247, placebo 34.9): 45.7** % | Proportion of responders for Dyspareunia (Daily Endometriosis Pain Impact Scale) ([5]; 200 mg BID, Month 3, n/N 81/172, placebo 31.9): 47.1*** % | Proportion of responders for Non-Menstrual Pelvic Pain (Daily Endometriosis Pain Impact Scale) ([5]; 200 mg BID, Month 3, n/N 133/244, placebo 36.5): 54.5*** % | Proportion of responders for dysmenorrhea (Daily Endometriosis Pain Impact Scale) ([5]; 200 mg BID, Month 3, n/N 185/244, placebo 19.6): 75.8*** % | Proportion of responders for Dyspareunia (Daily Endometriosis Pain Impact Scale) ([5]; 200 mg BID, Month 6, n/N 81/161, placebo 33.3): 50.3*** % | Proportion of responders for Non-Menstrual Pelvic Pain (Daily Endometriosis Pain Impact Scale) ([5]; 200 mg BID, Month 6, n/N 151/243, placebo 34.9): 62.1*** % | Proportion of responders for dysmenorrhea (Daily Endometriosis Pain Impact Scale) ([5]; 200 mg BID, Month 6, n/N 183/243, placebo 23.1): 75.3*** % | Endometrial biopsy findings ([5]; Study EM-I and its extension, Month 6 and Month 12): no abnormal biopsy findings post-baseline | Completed Suicide, % ([6]; 150 mg Once Daily (N = 475)): (0.2) % | Suicidal ideation, % ([6]; 150 mg Once Daily (N = 475)): (0.2) % | Depressed Mood, depression, depressive symptoms and or tearfulness, % ([6]; 150 mg Once Daily (N = 475), placebo 2.3): (2.7) % | Mood altered, mood swings, % ([6]; 150 mg Once Daily (N = 475), placebo 3.4): (5.7) % | Mean Intensity score (1 = spotting to 4 = heavy) ([6]; 150 mg Once Daily, Month 3, baseline 2.6, placebo 2.6 to 2.4): 2.2 | Mean bleeding/spotting days in prior 28 days ([6]; 150 mg Once Daily, Month 3, baseline 5.3, placebo 5.4 to 4.6): 2.8 days | Discontinuations due to hot flush ([6]; 150 mg QD): 0.8% | Discontinuations due to nausea ([6]; 150 mg QD): 0.8% | Numeric Rating Scale (NRS) endometriosis pain scores ([6]; 150 mg QD and 200 mg BID, Month 3 and Month 6): highly statistically (p<0.001) significant reduction in NRS scores compared to placebo | Percentage of patients with adverse reaction: Anxiety ([6]; 150 mg QD, N = 475, placebo 3): 3% | Percentage of patients with adverse reaction: Arthralgia ([6]; 150 mg QD, N = 475, placebo 3): 3% | Percentage of patients with adverse reaction: Insomnia ([6]; 150 mg QD, N = 475, placebo 3): 6% | Percentage of patients with adverse reaction: Nasopharyngitis ([6]; 150 mg QD, N = 475, placebo 4): 6% | Percentage of patients with adverse reaction: Sinusitis ([6]; 150 mg QD, N = 475, placebo 4): 5% | Percentage of patients with adverse reaction: Upper Respiratory Tract Infection ([6]; 150 mg QD, N = 475, placebo 5): 6% | Percentage of patients with adverse reaction: Hot Flush ([6]; 150 mg QD, N = 475, placebo 9): 23% | Percentage of patients with adverse reaction: Headache ([6]; 150 mg QD, N = 475, placebo 12): 17% | Percentage of patients with adverse reaction: Nausea ([6]; 150 mg QD, N = 475, placebo 13): 11% | Percentage of patients with adverse reaction: Amenorrhoea ([6]; 150 mg QD, N = 475, placebo <1): 4% | Mean increase from pretreatment baseline in HDL-C ([6]; 150 mg QD, 6-month treatment): 2.24 mg/dL | Mean increase from pretreatment baseline in LDL-C ([6]; 150 mg QD, 6-month treatment): 5.25 mg/dL
